pIC50: −log10 of the molar value.

What is called pIC50 is the IC50 on a negative log10 scale, so that one unit is a factor of ten.

The target of this test is T1, human plasma protein factor Xa (Homo sapiens, UniProt P00742).
T1 construct: measure proteolytic activity of the enzyme (factor Xa); purchased Haematologic Technologies (Essex Junction, Vt.); host or cells: human plasma
T1 sequence (P00742 235-488 limits assumed): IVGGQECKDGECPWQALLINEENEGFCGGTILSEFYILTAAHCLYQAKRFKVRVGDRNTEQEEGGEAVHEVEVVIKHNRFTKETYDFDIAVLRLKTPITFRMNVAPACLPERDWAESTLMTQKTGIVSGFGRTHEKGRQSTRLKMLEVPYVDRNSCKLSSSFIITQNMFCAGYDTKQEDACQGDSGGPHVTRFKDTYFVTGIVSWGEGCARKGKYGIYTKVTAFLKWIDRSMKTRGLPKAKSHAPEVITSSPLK
T1 sequence (P00742 41-179 partner limits assumed): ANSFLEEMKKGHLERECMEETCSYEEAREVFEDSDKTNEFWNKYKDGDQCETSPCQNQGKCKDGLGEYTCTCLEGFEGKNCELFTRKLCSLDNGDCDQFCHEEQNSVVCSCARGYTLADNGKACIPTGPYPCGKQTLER
Briefly: Factor Xa IC50 determination: cleavage of paranitroanilide substrate S-2765 in 96-well plates. The class given is biochemical. Conditions: fXa 1 nM, S-2765 100 μM, Tris buffered saline pH 7.4, room temperature. In outline: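 Initial rates of S-2765 (100 μM final) cleavage, read at 405 nm for 2 min, fitted with a four-parameter equation to give IC50. Enzyme: 1 nM human plasma fXa, 5 min room-temperature preincubation with inhibitor (0.01 nM–10 μM) in 20 mM Tris, 150 mM NaCl, 5 mM CaCl2, 0.1% BSA, 5% DMSO, pH 7.4; duplicates.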
Compound `N=C(c1ccc(-c2noc(CNC(=O)c3ccc(Cl)s3)n2)cc1)N1CCCCC1` [Example 337, 5-Chloro-N-((3-(4-(imino(piperidin-1-yl)methyl)phenyl)-1,2,4-oxadiazol-5-yl)methyl)thiophene-2-carboxamide] showed a pIC50 of no less than 7.00.

In turn, `CN(C)C(=N)c1ccc(-c2nc(CNC(=O)c3ccc(Cl)s3)co2)cc1` [Example 338, N-((2-(4-(N,N-Dimethylcarbamimidoyl)phenyl)oxazol-4-yl)methyl)-5-chlorothiophene-2-carboxamide] showed a pIC50 of no less than 7.00.

`CN1CCN=C1c1ccc(-c2nc(CNC(=O)c3ccc(Cl)s3)co2)cc1` [Example 339, 5-Chloro-N-((2-(4-(1-methyl-4,5-dihydro-1H-imidazol-2-yl)phenyl)oxazol-4-yl)methyl)thiophene-2-carboxamide] had a pIC50 of no less than 7.00.

The compound `N=C(c1ccc(-c2nc(CNC(=O)c3ccc(Cl)s3)co2)cc1)N1CCCC1` [Example 340, 5-Chloro-N-((2-(4-(imino(pyrrolidin-1-yl)methyl)phenyl)oxazol-4-yl)methyl)thiophene-2-carboxamide] had a pIC50 of no less than 7.00.

The compound `N=C(c1ccc(-c2nc(CNC(=O)c3ccc(Cl)s3)co2)cc1)N1CCCCC1` [Example 341, 5-Chloro-N-((2-(4-(imino(piperidin-1-yl)methyl)phenyl)oxazol-4-yl)methyl)thiophene-2-carboxamide] had a pIC50 of no less than 7.00.

`CCOC(=O)C1CCN(C(=N)c2ccc(-c3nc(CNC(=O)c4ccc(Cl)s4)co3)cc2)CC1` [Example 342, Ethyl 1-((4-(4-((2-chlorothiophene-5-carboxamido)methyl)oxazol-2-yl)phenyl)(imino)methyl)piperidine-4-carboxylate] had a pIC50 of 6.30 to 7.00.

For `CCN(C)C(=N)c1ccc(-c2nc(CNC(=O)c3ccc(Cl)s3)co2)cc1` [Example 343, N-((2-(4-(N-Ethyl-N-methylcarbamimidoyl)phenyl)oxazol-4-yl)methyl)-5-chlorothiophene-2-carboxamide], the pIC50 is 6.30 to 7.00.

`CCCN(C)C(=N)c1ccc(-c2nc(CNC(=O)c3ccc(Cl)s3)co2)cc1` [Example 344, N-((2-(4-(N-Methyl-N-propylcarbamimidoyl)phenyl)oxazol-4-yl)methyl)-5-chlorothiophene-2-carboxamide] gave a pIC50 of 6.30 to 7.00.

The compound `CN(C)CCN(C)C(=N)c1ccc(-c2nc(CNC(=O)c3ccc(Cl)s3)co2)cc1` [Example 345, N-((2-(4-(N-(2-(Dimethylamino)ethyl)-N-methylcarbamimidoyl)phenyl)oxazol-4-yl)methyl)-5-chlorothiophene-2-carboxamide] had a pIC50 of 6.30 to 7.00.

On to `COCCN(C)C(=N)c1ccc(-c2nc(CNC(=O)c3ccc(Cl)s3)co2)cc1` [Example 346, N-((2-(4-(N-(2-Methoxyethyl)-N-methylcarbamimidoyl)phenyl)oxazol-4-yl)methyl)-5-chlorothiophene-2-carboxamide], for which the pIC50 was 6.30 to 7.00.

Regarding `N=C(c1ccc(-c2nc(CNC(=O)c3ccc(Cl)s3)co2)cc1)N1CCC(C(N)=O)CC1` [Example 347, 1-((4-(4-((2-Chlorothiophene-5-carboxamido)methyl)oxazol-2-yl)phenyl)(imino)methyl)piperidine-4-carboxamide], the pIC50 is 6.30 to 7.00.

Consider `CNC(=N)c1ccc(-c2nc(CNC(=O)c3ccc(Cl)s3)co2)cc1` [Example 348, N-((2-(4-(N-Methylcarbamimidoyl)phenyl)oxazol-4-yl)methyl)-5-chlorothiophene-2-carboxamide], for which the pIC50 was no more than 6.30.

`CN(Cc1ccco1)C(=N)c1ccc(-c2nc(CNC(=O)c3ccc(Cl)s3)co2)cc1` [Example 349, N-((2-(4-(N-(Furan-2-ylmethyl)-N-methylcarbamimidoyl)phenyl)oxazol-4-yl)methyl)-5-chlorothiophene-2-carboxamide] showed a pIC50 of 6.30 to 7.00.

As to `CN(C)C(=N)c1ccc(-c2nc(CNC(=O)c3ccc(Cl)s3)cs2)cc1` [Example 350, N-((2-(4-(N,N-Dimethylcarbamimidoyl)phenyl)thiazol-4-yl)methyl)-5-chlorothiophene-2-carboxamide], the pIC50 is 6.30 to 7.00.

Source of the values: US8377974B2 (Millennium Pharmaceuticals, Inc., priority 2004, dated 2013).
